Values belong to the compound of their own block, whether it stands above or below them.
Key:
[1] = system: BACE1 inhibition in HEKp293 cells transfected with APP751 gene (SWE293); test: SWE293 cellular assay: reduction of Aβ peptide production, ELISA; type: cell-based; settings: Homo sapiens; dose at which Aβ level is reduced by 50%, HEKp293 SWE293 cells; read-out: SWE293 ED50
Method in brief: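 SWE293 cells (HEK293 carrying APP751), plated overnight at 37 °C, received 1:3 serially diluted compound for two successive 2 h exposures with washes between. Medium Aβ was captured on 266-antibody plates, detected with 3D6 antibody and streptavidin-AP fluorescent substrate, and quantified against an Aβ-40 standard curve.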

[2] = target: T1, BACE1 (Homo sapiens (Human), UniProt P56817); test: BACE1 FP assay; type: biochemical; settings: pH 4.5
T1 sequence (P56817 46-501): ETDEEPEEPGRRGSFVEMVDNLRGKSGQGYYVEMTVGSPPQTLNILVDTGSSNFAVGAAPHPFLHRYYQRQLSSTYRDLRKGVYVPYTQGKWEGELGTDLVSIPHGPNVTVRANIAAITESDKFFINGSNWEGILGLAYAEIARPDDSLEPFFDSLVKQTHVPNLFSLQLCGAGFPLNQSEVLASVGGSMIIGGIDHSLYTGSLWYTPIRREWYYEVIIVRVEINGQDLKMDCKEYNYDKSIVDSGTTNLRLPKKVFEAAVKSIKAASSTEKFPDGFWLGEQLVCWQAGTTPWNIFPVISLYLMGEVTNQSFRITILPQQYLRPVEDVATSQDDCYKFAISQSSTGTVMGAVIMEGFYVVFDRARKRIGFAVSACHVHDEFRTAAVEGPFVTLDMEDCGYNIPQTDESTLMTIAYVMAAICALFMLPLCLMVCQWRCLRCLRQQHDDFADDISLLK

[3] = target: Cathepsin D (Homo sapiens (Human), UniProt P07339); test: Cathepsin D FP assay; type: biochemical; settings: pH 4.5, read-out: CatD FP IC50
Sequence of Cathepsin D (P07339 65-412, species assumed): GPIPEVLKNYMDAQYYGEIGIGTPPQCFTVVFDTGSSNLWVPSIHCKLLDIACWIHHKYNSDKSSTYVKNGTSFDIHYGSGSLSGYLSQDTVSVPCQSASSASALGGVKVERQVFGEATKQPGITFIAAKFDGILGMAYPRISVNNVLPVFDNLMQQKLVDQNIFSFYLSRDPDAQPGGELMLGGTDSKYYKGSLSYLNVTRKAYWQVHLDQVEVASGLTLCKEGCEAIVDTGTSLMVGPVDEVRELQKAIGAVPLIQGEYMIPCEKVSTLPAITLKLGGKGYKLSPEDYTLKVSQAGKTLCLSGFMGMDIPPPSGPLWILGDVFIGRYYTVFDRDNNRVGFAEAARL
Method in brief: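 AlphaScreen (PBS, 0.01% Tween-20, 0.05% BSA, pH 7.0): compound preincubated 15 min with BACE1 ([…]), then biotinylated binding-site probe 1 h, beads 2 h; IC50 from signal. FP (100 mM sodium acetate, pH 4.5, 0.001% Tween-20): added BACE1 (0.3 nM) or cathepsin D (1.8 nM), 30 min RT.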

[4] = target: T1, BACE1; test: BACE1 AlphaScreen assay (displacement of biotinylated BACE1 binding site probe); settings: read-out: BACE1 AS IC50
[5] = system: Aβ x-40 levels; test: In vivo reduction of Aβ x-40 levels in Sprague Dawley rat, oral dosing; settings: for effect on brain Aβ x-40 levels / decrease of the mean Aβ x-40 compared to vehicle control in brain samples: rat cortical brain, 3 hours post dosing
Experimental: Ability of a compound as described herein to reduce the level of Aβ peptide in vivo was determined in a Sprague Dawley rat model. Compounds were dosed orally in female Sprague Dawley rats, along with a vehicle control, five rats per dose group. Compounds were formulated in 5% DMSO/0.5% methylcellulose, and dosed at various amounts (10 mL/kg), and 10 mL/kg vehicle by oral gavage. CSF was collected from the cistern magna under isoflurane anesthesia, frozen on dry ice and stored at −80° C. until assessed for Aβ peptide levels. […] Cortical brain samples were homogenized in 5 M guanidine and Aβ peptide was quantitated in these brain samples as well as plasma samples in an ELISA assay, where Aβ x-40 ELISA detects Aβ peptide N-terminal sequences containing the transmembrane region and ending at amino acid 40 at the C-terminus. The ELISA was performed as described in Johnson-Wood et al., PNAS February 1997, 94: 1550-1555, using capture antibody 266 (Aβ 16-23 specific) and biotinylated 2G3 (Aβ 40 specific) as reporter antibody. Results of cortical and plasma Aβ x-40 levels were statistically analyzed separately using a one-way Anova with a Dunnets post test analysis at the 0.05 significant level.

IC50 [2]: 496 nM | IC50 [3]: > 30000 nM | IC50 [4]: 34 nM
Structure (SMILES): Cc1nc(C(=O)Nc2ccc(F)c(C3(C)N=C(N)OC4(CCC4)C3(F)F)c2)co1 (centres unmarked) [Compound 9-165, N-(3-(6-amino-9,9-difluoro-8-methyl-5-oxa-7-azaspiro[3.5]non-6-en-8-yl)-4-fluorophenyl)-2-methyloxazole-4-carboxamide]
IC50 [1]: 176 nM

IC50 [2]: 32 nM | IC50 [3]: 14700 nM | IC50 [4]: 2 nM
Structure (SMILES): COc1cccnc1Nc1ccc(F)c([C@]2(C)CC3(CCOCC3)SC(N)=N2)c1 [Compound 13-182, (S)-4-(2-fluoro-5-(3-methoxypyridin-2-ylamino)phenyl)-4-methyl-9-oxa-1-thia-3-azaspiro[5.5]undec-2-en-2-amine]
IC50 [1]: < 123 nM

Structure (SMILES): CC#Cc1cncc(-c2csc([C@]3(C)CC4(CCOCC4)OC(N)=N3)c2)c1 [Compound 104]
effect on brain Aβ x-40 levels ([5]; 50 and 200 mg/kg oral): no significant effect

Structure (SMILES): CC1(c2cc(NC(=O)c3ccc(F)cn3)ccc2F)CC2(CCC2)OC(N)=N1 (centres unmarked) [Compound 125]
effect on brain Aβ x-40 levels ([5]; 30 or 100 mg/kg oral): no significant effect

Structure (SMILES): C[C@@]1(c2cc(NC(=O)c3ccc(F)cn3)ccc2F)CC2(CCOCC2)SC(N)=N1 [Compound 148]
decrease of the mean Aβ x-40 compared to vehicle control in brain samples ([5]; 10 mg/kg oral): 23% | decrease of the mean Aβ x-40 compared to vehicle control in brain samples ([5]; 30 mg/kg oral): 31% | decrease of the mean Aβ x-40 compared to vehicle control in brain samples ([5]; 60 mg/kg oral): 31% | decrease of the mean Aβ x-40 compared to vehicle control in brain samples ([5]; 100 mg/kg oral): 40%

Structure (SMILES): C[C@@]1(c2cc(NC(=O)c3ccc(Cl)cn3)ccc2F)CC2(CCOCC2)SC(N)=N1 [Compound 151]
duration of reduction in Aβ x-40 levels in CSF (relative to 12 hours in brain) ([5]; 30 mg/kg oral, rat, various timepoints, CSF): longer | duration of reduction in Aβ x-40 levels in brain samples ([5]; 30 mg/kg oral, rat, various timepoints, brain): up to 12 hours

Structure (SMILES): C[C@@]1(c2cc(NC(=O)c3ccc(Cl)cn3)ccc2F)CC2(CC2)OC(N)=N1 [Compound 154]
decrease of the mean Aβ x-40 compared to vehicle control in brain samples ([5]; 100 mg/kg oral): 25%

From patent publication US9493485B2, “Spirocyclic dihydro-thiazine and dihydro-oxazine BACE inhibitors, and compositions and uses thereof” (Imago Pharmaceuticals, Inc., priority 2012, dated 2016)
